{
  "source": "patent US11905255B1",
  "about": "“Solid state forms of (S)-2-(((S)-6,8-difluoro-1,2,3,4-tetrahydronaphthalen-2-yl)amino)-N-(1-(2-methyl-1-(neopentylamino)propan-2-yl)-1H-imidazol-4-yl)pentanamide and uses thereof” (Pfizer Inc., priority 2019, dated 2024)",
  "key": {"[1]": {"conditions": "3 weeks slurry, gravimetric", "protocol": "After approximately 24 hours, solids were isolated by centrifugation using eppendorf centrifuge tubes equipped with a 0.45 μm nylon filter. […] Equilibrium solubility of solids isolated were determined gravimetrically as follows. Measured aliquots of mother liquor solutions from the 3-week slurries were place in pre-weighed aluminum TGA pans. Subsequently, solvents were evaporated under ambient conditions or using vacuum. Remaining solids were weighed. • (a) Experiments were conducted for a total of ˜1 week and ˜3 weeks, both with solvent replacement after ˜1 day of slurrying. Solvent ratios (v/v) and duration of experiments are approximate."}, "[2]": {"test": "Drying experiments on selected materials, solid form by XRPD", "format": "physicochemical", "text": "Table 6 summarizes the drying conditions for selected materials. • (a) Temperature, RH, and duration of experiments are approximate."}, "[3]": {"protocol": "Weighed samples of material were treated with aliquots of specified solvents at ambient temperature. Samples were typically sonicated between additions to facilitate dissolution. Complete dissolution was observed through visual inspection. Solubility was calculated based on the total amount of solvent added to achieve complete dissolution and may be greater than the value reported due to incremental solvent addition and the inherent kinetics of dissolution. If dissolution was not observed, values are reported as “less than”. If dissolution was observed upon the first addition of solvent, values are reported as “greater than”.\n• (a) Solubility estimated using solvent addition method via visual assessment of samples. Values are rounded to nearest whole number and reported as “<” if dissolution was not observed. • (b) non-cGMP samples."}},
  "note": "Read-outs that look alike come from different tables or passages of the source.",
  "data": [
    {"smiles": "Br.Br.CCC[C@H](N[C@H]1CCc2cc(F)cc(F)c2C1)C(=O)Nc1cn(C(C)(C)CNCC(C)(C)C)cn1", "note": "[Form A, (S)-2-(((S)-6,8-difluoro-1,2,3,4-tetrahydronaphthalen-2-yl)amino)-N-(1-(2-methyl-1-(neopentylamino)propan-2-yl)-1H-imidazol-4-yl)pentanamide]", "values": [
      {"measurement": "Solubility (b)", "setting": "[1]; DMF/ACN (65/35), ambient", "result": 10, "unit": "mg/mL"},
      {"measurement": "Solubility (b)", "setting": "[1]; DMF/IPA (60/40), ambient", "result": 13, "unit": "mg/mL"},
      {"measurement": "Solubility (b)", "setting": "[1]; DMF/MIBK (85/15), ambient", "result": 19, "unit": "mg/mL"},
      {"measurement": "Solubility (b)", "setting": "[1]; Dioxane/H2O (70/30), ambient", "result": 24, "unit": "mg/mL"},
      {"measurement": "Solubility (b)", "setting": "[1]; EtOH/H2O (60/40), ambient", "result": 36, "unit": "mg/mL"},
      {"measurement": "Solubility (b)", "setting": "[1]; H2O, ambient", "result": 14, "unit": "mg/mL"},
      {"measurement": "Solubility (b)", "setting": "[1]; MEK/DMF (20/80), ambient", "result": 17, "unit": "mg/mL"},
      {"measurement": "Solubility (b)", "setting": "[1]; MeOH (anhydrous), 2-8° C. (cold room)", "result": 13, "unit": "mg/mL"},
      {"measurement": "Solubility (b)", "setting": "[1]; MeOH/Acetone (anhydrous) (50/50), ambient", "result": 7, "unit": "mg/mL"},
      {"measurement": "Solubility (b)", "setting": "[1]; MeOH/EtOAc (anhydrous) (70/30), ambient", "result": 6, "unit": "mg/mL"},
      {"measurement": "Solubility (b)", "setting": "[1]; MeOH/H2O (20/80), ambient", "result": 17, "unit": "mg/mL"},
      {"measurement": "Solubility (b)", "setting": "[1]; NMP/Acetone (anhydrous) (85/15), ambient", "result": 36, "unit": "mg/mL"},
      {"measurement": "Solubility (b)", "setting": "[1]; PG, ambient", "result": 8, "unit": "mg/mL"},
      {"measurement": "Solubility (b)", "setting": "[1]; THF/H2O (85/15), ambient", "result": 25, "unit": "mg/mL"}
    ]},
    {"smiles": "Br.Br.CCC[C@H](N[C@H]1CCc2cc(F)cc(F)c2C1)C(=O)Nc1cn(C(C)(C)CNCC(C)(C)C)cn1", "note": "[Form D, (S)-2-(((S)-6,8-difluoro-1,2,3,4-tetrahydronaphthalen-2-yl)amino)-N-(1-(2-methyl-1-(neopentylamino)propan-2-yl)-1H-imidazol-4-yl)pentanamide]", "values": [
      {"measurement": "XRPD Results after drying", "setting": "[2]; Dried on P2O5, RT, 17 days, RH at prep.: 3%, RH at run: 43%, cell continues: selected peaks slightly shifted", "result": "Consistent with Form D,"}
    ]},
    {"smiles": "Br.Br.CCC[C@H](N[C@H]1CCc2cc(F)cc(F)c2C1)C(=O)Nc1cn(C(C)(C)CNCC(C)(C)C)cn1", "note": "[Form F, (S)-2-(((S)-6,8-difluoro-1,2,3,4-tetrahydronaphthalen-2-yl)amino)-N-(1-(2-methyl-1-(neopentylamino)propan-2-yl)-1H-imidazol-4-yl)pentanamide]", "values": [
      {"measurement": "XRPD Results after drying", "setting": "[2]; VO, 75° C., 1 day", "result": "Consistent with Form D"},
      {"measurement": "XRPD Results after drying", "setting": "[2]; VO, 77° C., 1 day", "result": "Consistent with Form F;"}
    ]},
    {"smiles": "Br.Br.CCC[C@H](N[C@H]1CCc2cc(F)cc(F)c2C1)C(=O)Nc1cn(C(C)(C)CNCC(C)(C)C)cn1", "note": "[dihydrobromide salt of Compound 1, dihydrobromide salt of (s)-2-(((s)-6,8-difluoro-1,2,3,4-tetrahydronaphthalen-2-yl)amino)-n-(1-(2-methyl-1-(neopentylamino)propan-2-yl)-1h-imidazol-4-yl)pentanamide]", "values": [
      {"measurement": "Solubility Estimate (a)", "setting": "[3]", "result": "<1", "unit": "mg/mL"}
    ]}
  ]
}
